In patent US4156427A, “Injectable male animal sterilant for selectively controlling the function of testes” (priority 1977, dated 1979):
Where two headings read alike, the source gives them in different places.

Columns and labels:
[1] = tested on: male reproduction of sexually mature rats
Experimental: This example illustrates the effect of zinc sulfate on male reproduction of sexually mature rats when administered in the vas diferens.
Eighty sexually mature male rats were divided into four groups, Group I being a control. The rats in Groups II, III and IV were treated by injecting 0.5, 2.5 and 5.0 mg ZnSO4.7H2 O into the vas diferens.
At the end of 60 days, as in the other examples, the rats were sacrificed.

[2] = tested on: male reproduction in sexually mature rats; details: rat
Experimental: One hundred sexually mature rats were divided into two groups, Group I being a control. Each of the Group II rats was injected with 25 mg ZnSO4.7H2 O into each side of the scrotum.
*Animals were sacrificed 60 days after

[3] = tested on: purebred Angus bulls; assay: Example 17: injection into testes of Angus bulls, rate of gain and carcass quality; assay type: in vivo, cattle; details: for BODY WEIGHT Final: after one year; for BODY WEIGHT Final / % Fat / % Protein / Rate of Gain: III 500.0 mg tannic acid, IV 500.0 mg ZnSO4.7H2 O, V 250.0 mg + 250.0 mg; for % Fat / % Protein / Rate of Gain / rate of gain vs surgically castrated animals: one year; for Rate of Gain: surgically castrated 1.29; for rate of gain vs surgically castrated animals: vs Group II surgically castrated
Experimental: Ten purebred Angus bulls weighing an average of 400 pounds were divided into five groups, Group I being a control. Each animal in Group I was injected with 5.0 ml of water in each testis. Those in Group II were surgically castrated. The animals in Group III were injected with 500.0 mg of tannic acid, those in Group IV with 500.0 mg of ZnSO4.7H2 O and those in Group V with 250.0 mg of tannic acid and 250.0 mg of ZnSO4.7H2 O.
The animals were fed concentrate and grazed. After one year, they were sacrificed.

[4] = tested on: male reproduction of sexually mature rats; assay: Example 5: zinc sulfate injected into the testes of sexually mature rats; assay type: in vivo; details: rat, 0.5, 2.5 and 5.0 mg into the testes
Text: Such injection was made into the midline of each testis with a sterilized needle.

[5] = tested on: male reproduction of sexually mature rats; details: rat; for Testosterone ng/ml serum / Epididymis weight / Prostate weight / Seminal Vesicles weight / Testes weight: i.p.; for Epididymis weight / Prostate weight / Seminal Vesicles weight / Testes weight: sacrificed at 60 days
Experimental: This example illustrates the effect of zinc sulfate on male reproduction of sexually mature rats when administered intraperitoneally.
Four hundred sexually mature rats were divided into four groups, Group I being a control. The rats in Groups II, III and IV were treated daily for 30 days, respectively, with 0.5, 1.0 and 5.0 mg ZnSO4.7H2 O. At the end of 60 days, as in Example 1, the rats were sacrificed.
(§1) ZnSO4 solution was made up from ZnSO4 . 7H2 O salt.
Therefore 0.5 mg, 1.0 mg and 5.0 mg ZnSO4 . 7H2 O correspond to
0.28 mg, 0.56 mg and 2.81 mg ZnSO4 respectively.

[6] = tested on: weaned male rats; assay: Example 12: injection into testes of weaned 30-day old rats; details: 60 days, per testis: II 5.0 mg ZnSO4.7H2 O, III 5.0 mg tannic acid, IV 2.5 mg + 2.5 mg
[7] = tested on: spermatogenesis / testis; assay: General findings: arrest of spermatogenesis and diffusion of zinc after injection into testis; assay type: in vivo; details: astringent zinc sulfate, injected in testis
Experimental: Recommended dosages, as above mentioned, depend upon the size and species of the animal and upon the desired result. Recommended dosages for sterilization of adult dogs weighing less than 10 kg is 0.25 ml into each testis of a mixture containing between 10.0 and 25.0 mg of tannic acid and 25.0 mg of ZnSO4.7H2 O. For dogs weighing between 10 and 15 kg, the recommended dose is 0.5 ml into each testis of a mixture containing between 10.0 and 50.0 mg of tannic acid and 50.0 mg of ZnSO4.7H2O. For those dogs weighing between 16 and 20 kg, the recommended dose is 1.0 ml into each testis of a mixture containing between 50.0 and 100.0 mg of tannic acid and between 75.0 and 100.0 mg of ZnSO4.7H2 O. For dogs weighing over 20 kg, the recommended dose is 1.0 ml in each testis of a mixture containing between 50.0 and 125.0 mg of tannic acid and 125.0 mg of ZnSO4.7H2 O.
In the case of puppies between 6 and 8 weeks of age, the recommended dose is 0.05 ml into each testis of a mixture containing 2.0 mg of tannic acid and 5.0 mg of ZnSO4.7H2 O. For puppies over 8 weeks but not sexually mature, the dose is preferably 0.08 ml into each of the testes of a mixture containing 7.0 mg of tannic acid and 7.0 mg of ZnSO4.7H2 O. For adult cats, the recommended dose is 0.1 ml into each testis of a mixture containing 10.0 mg of tannic acid and 10.0 mg of ZnSO4.7H2 O. […]

[8] = tested on: male reproduction of sexually mature rats; details: rat
Experimental: This example illustrates the effect of zinc sulfate on male reproduction of sexually mature rats when administered orally.
Three hundred sexually mature rats were divided into three groups, Group I being a control. Group II rats were treated daily with 15.0 mg ZnSO4.7H2 O and Group III rats with 50.0 mg, both groups receiving said treatment for 30 days.
as §1
Therefore 15 and 50 mgZnSO4 . 7H2 O correspond to 8.42 mg, 28.0

[9] = tested on: human spermatozoa; details: cited from earlier work
[10] = tested on: sexually mature cats; assay: Example 16: injection into testes of sexually mature cats; assay type: in vivo, cat
Experimental: Those animals in Group I were injected in each testis with 0.1 ml of water.
The testosterone level for the cats in Group I was 6.8±0.2 ng/ml, for those in Group II 4.1±0.3 ng/ml and less than 1 ng/ml for those in Group III.

[11] = tested on: litter mate dogs, 8 weeks old; assay: Example 13: injection into testes of 8 weeks old litter mate dogs; details: Group II, 20.0 mg tannic acid buffered to pH 6.5 into each testis
Experimental: Thirty-eight litter mate dogs, 8 weeks old, were divided into four groups. The dogs in Group I were a control and were injected with 0.2 ml of water into each testis. The animals in Group II were similarly treated in each testis with 20.0 mg of tannic acid buffered to a pH of 6.5. Those in Group III were treated with 20 mg of ZnSO4.7H2 O and those in Group IV with a mixture of 10 mg of tannic acid and 10 mg of ZnSO4.7H2 O.

[12] = rat, 0.5, 2.5 and 5.0 mg into the vas deferens, 60 days
[13] = 25 mg ZnSO4.7H2 O into each scrotum, 60 days after
[14] = 25 mg ZnSO4.7H2 O into each scrotum, 60 days after, p<0.001 vs control
[15] = 25 mg into each side of the scrotum
[16] = 25 mg into each side of the scrotum, FIGS. 1 and 2
[17] = 0.5 mg ZnSO4.7H2 O daily 30 days
[18] = 1.0 mg ZnSO4.7H2 O daily 30 days
[19] = 5.0 mg ZnSO4.7H2 O daily 30 days
[20] = i.p., 0.5, 1.0 and 5.0 mg daily 30 days
[21] = oral, 15 mg ZnSO4.7H2 O daily 30 days
[22] = oral, 50 mg ZnSO4.7H2 O daily 30 days
[23] = oral, 15.0 and 50.0 mg daily 30 days

In the case of `O=S(=O)([O-])[O-].[Zn+2]` [zinc sulfate], the impregnation of females ([1]; rat, 5.0 mg ZnSO4.7H2 O in the vas deferens, mated with females in heat) is reported as “did not impregnate the females”, the effect on spermatogenesis [1, 12] is reported as “no effect on spermatogenesis” and the “weight of the testes, prostate or seminal vesicles” value [1, 12] is reported as “no significant change in the weight of the testes, prostate or seminal vesicles”. The “pregnancy of females mated” value ([1]; rat, 0.5 and 2.5 mg ZnSO4.7H2 O in the vas deferens, mated with females in heat) was “Pregnancy also occurred”, the Prostate weight [2, 13] was 0.82 ± 0.06 gm and the “Seminal Ves weight” value [2, 13] was 1.20 ± 0.02 gm. The Epididymis weight [2, 14] was 0.56 ± 0.06 gm, the Testes weight [2, 14] was 1.42 ± 0.09 gm and the “weight of the prostate and seminal vesicles” value [2, 15] was “no difference, however, in the weight of the prostate and seminal vesicles”. The “weight of the testes and epididymis” value [2, 15] was “significant reduction in the weight of the testes and epididymis”, the “pregnancy of females mated” value ([2]; 25 mg into each side of the scrotum, mated with females in heat) was “No pregnancy resulted” and the testosterone levels ([2]; 25 mg into each side of the scrotum, vs control) was “no significant reduction in testosterone levels”. The “condition of the Leydig cells (histology of the testes)” value [2, 16] was “no difference in the condition of the Leydig cells”, the “condition of the sex cells (histology of the testes)” value [2, 16] was “significant change in the condition of the sex cells” and the “BODY WEIGHT Final” value [3] was 910. For the same compound, the “% Fat” value [3] was 20.9%, the “% Protein” value [3] was 17.9% and the “Rate of Gain” value [3] was 1.54 lbs/day. For the same compound, the “rate of gain vs surgically castrated animals” value [3] was “faster rate of gain than the surgically castrated animals”, the testosterone level [4] was “decrease in the testosterone level” and the “pregnancy of females mated” value ([4]; mated with females in heat) was “No pregnancy resulted”. The “weight of the male reproductive organs” value ([4]; reduction increased with the dose) was “significant reduction in the weight of the male reproductive organs”, the Testosterone ng/ml serum [5, 17] was 6.79 ± 1.34 ng/mL and the Epididymis weight [5, 17] was 0.90 ± 0.02 gm. The Prostate weight [5, 17] was 0.42 ± 0.04 gm, the “Seminal Vesicles weight” value [5, 17] was 0.72 ± 0.04 gm and the Testes weight [5, 17] was 2.94 ± 0.03 gm. For the same compound, the Testosterone ng/ml serum [5, 18] was 6.87 ± 0.58 ng/mL, the Epididymis weight [5, 18] was 0.90 ± 0.02 gm and the Prostate weight [5, 18] was 0.46 ± 0.03 gm. The “Seminal Vesicles weight” value [5, 18] was 0.74 ± 0.04 gm, the Testes weight [5, 18] was 3.05 ± 0.07 gm and the Testosterone ng/ml serum [5, 19] was 6.30 ± 0.68 ng/mL. For the same compound, the Epididymis weight [5, 19] was 0.88 ± 0.04 gm, the Prostate weight [5, 19] was 0.41 ± 0.02 gm and the “Seminal Vesicles weight” value [5, 19] was 0.89 ± 0.07 gm. For the same compound, the Testes weight [5, 19] was 2.74 ± 0.13 gm, the “histological changes in the sex organs” value [5, 20] was “no histological changes were observed in the sex organs” and the testosterone level [5, 20] was “testosterone level was not changed”. For the same compound, the “weight of the testes, epididymis, prostate or seminal vesicles” value [5, 20] was “no significant reduction in the weight of the testes, epididymis, prostate or seminal vesicles”, the “impregnation of females in heat” value ([5]; treated intraperitoneally, mated with females in heat) was “impregnated the females” and the “Epididymis weight” value [6] was 0.10 ± 0.03 gm. For the same compound, the “Prostate weight” value [6] was 0.05 ± 0.02 gm, the “Seminal Vesicles Wt.” value [6] was 0.05 ± 0.02 gm and the “Testes weight” value [6] was 0.21 ± 0.04 gm. For the same compound, the “diffusion of zinc beyond epididymis and prostate” value [7] was “no diffusion beyond that”, the “diffusion of zinc to the epididymis and prostate” value [7] was “some diffusion of the zinc to the epididymis and prostate” and the Epididymis weight [8, 21] was 0.94 ± 0.03 gm. The Prostate weight [8, 21] was 0.44 ± 0.03 gm, the “Seminal Vesicles weight” value [8, 21] was 0.73 ± 0.04 gm and the Testes weight [8, 21] was 2.88 ± 0.17 gm. The Testosterone ng/ml serum [8, 21] was 6.25 ± 1.68 ng/mL, the Epididymis weight [8, 22] was 0.91 ± 0.04 gm and the Prostate weight [8, 22] was 0.42 ± 0.02 gm. The “Seminal Vesicles weight” value [8, 22] was 0.78 ± 0.04 gm, the Testes weight [8, 22] was 2.94 ± 0.13 gm and the Testosterone ng/ml serum [8, 22] was 6.57 ± 0.58 ng/mL. For the same compound, the “histological changes in the male reproductive organs” value [8, 23] was “No histological changes were observed”, the testosterone levels [8, 23] was “no change was noted in testosterone levels” and the “weight of the testes, epididymis, prostate or seminal vesicles” value [8, 23] was “no significant change in the weight of the testes, epididymis, prostate or seminal vesicles”. For the same compound, the “impregnation of females in heat” value ([8]; treated orally, mated with females in heat) was “impregnated the females”.
For `[Zn]` [zinc], the “toxic effects on human spermatozoa” value ([9]; under certain conditions) is listed as “can exert toxic effects on human spermatozoa”, the sperm motility ([9]; zinc 5 μg/ml (0.075 mM), without albumin) is listed as “markedly inhibited sperm motility” and the sperm motility ([9]; zinc 50 μg/ml (0.75 mM), with 4% albumin) is listed as “only slightly inhibited sperm motility”.
For tannic acid, the “BODY WEIGHT Final” value [3] was 826, the “% Fat” value [3] was 18.0% and the “% Protein” value [3] was 18.3%. For the same compound, the “Rate of Gain” value [3] was 1.40 lbs/day, the “rate of gain vs surgically castrated animals” value [3] was “faster rate of gain than the surgically castrated animals” and the sperm count ([10]; cats, one week, per testis II 10.0 mg tannic acid pH 6.8, III 5.0 mg tannic acid + 5.0 mg ZnSO4.7H2 O, control 230×10^6 /ml) was “zero”. For the same compound, the “behaviour / male aggressiveness” value ([10]; cats, II 10.0 mg tannic acid, III 5.0 mg + 5.0 mg per testis) was “acted normally”, the testosterone level ([10]; cats, II 10.0 mg tannic acid, III 5.0 mg + 5.0 mg per testis, control 6.8±0.2 ng/ml) was 4.1 ± 0.3 ng/mL and the weight gain ([10]; in vivo) was “None of the animals in Groups II or III gained any more weight than those in Group I”. For the same compound, the “Epididymis weight” value [6] was 0.31 ± 0.07 gm, the “Prostate weight” value [6] was 0.10 ± 0.05 gm and the “Seminal Vesicles Wt.” value [6] was 0.14 ± 0.04 gm. The “Testes weight” value [6] was 0.46 ± 0.12 gm and the muscular appearance [11] was “better muscular appearance than those in the control group”.
